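How tested: cells in 96-well plates exposed to compound for 48 hours at five concentrations. The concentration for 50% growth inhibition is given as GI50.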 The source made the active and inactive calls. No stated cut-off is given here; in the data, active = GI50 up to about 1.1 µM and inactive = higher.
What was measured:
Experiment in all cases: NCI-60 cell line screen, 48 h
[1] = system: DU-145
[2] = system: PC-3
[3] = system: SN12C
[4] = system: OVCAR-4
[5] = system: OVCAR-3
[6] = system: MDA-N
[7] = system: Malme-3M
[8] = system: HCT-116
[9] = system: HCC 2998
[10] = system: CCRF-CEM
[11] = system: SNB-75
[12] = system: SF-295
[13] = system: T47D
[14] = system: SR
[15] = system: EKVX
[16] = system: OVCAR-5
[17] = system: ACHN
[18] = system: UACC-62
[19] = system: A498

Compound | GI50 [1] | GI50 [2] | GI50 [3] | GI50 [4] | GI50 [5] | GI50 [6] | GI50 [7] | GI50 [8] | GI50 [9] | GI50 [10] | GI50 [11] | GI50 [12] | GI50 [13] | GI50 [14] | GI50 [15] | GI50 [16] | GI50 [17] | GI50 [18] | GI50 [19]
O=C(O)c1cc2ccccc2c(/N=N/c2ccc(S(=O)(=O)O)cc2)c1O | > 100 µM (inactive) | > 100 µM (inactive) | > 100 µM (inactive) | > 100 µM (inactive) | > 100 µM (inactive) | > 100 µM (inactive) | > 100 µM (inactive) | > 100 µM (inactive) | > 100 µM (inactive) | > 100 µM (inactive) | > 100 µM (inactive) | > 100 µM (inactive) | > 100 µM (inactive) | > 100 µM (inactive) | > 100 µM (inactive) | > 100 µM (inactive) | > 100 µM (inactive) | > 100 µM (inactive) | 
CCOC(=O)CCN1C(=O)c2c(NC(=O)C(=O)O)cccc2S1(=O)=O | > 100 µM (inactive) | > 100 µM (inactive) | > 100 µM (inactive) | > 100 µM (inactive) |  | > 100 µM (inactive) | > 100 µM (inactive) | > 100 µM (inactive) | > 100 µM (inactive) | > 100 µM (inactive) |  | > 100 µM (inactive) | > 100 µM (inactive) | > 100 µM (inactive) | > 100 µM (inactive) | > 100 µM (inactive) | > 100 µM (inactive) | > 100 µM (inactive) | > 100 µM (inactive)
CSC1NNC2(C(=O)N1)c1ccccc1-c1ccccc12 (configuration not stated) | > 10 µM (inactive) | > 10 µM (inactive) | > 10 µM (inactive) | > 10 µM (inactive) |  | > 10 µM (inactive) | > 10 µM (inactive) | > 10 µM (inactive) | > 10 µM (inactive) | > 10 µM (inactive) | > 10 µM (inactive) | > 10 µM (inactive) | 5.53 µM (inactive) | > 10 µM (inactive) | 8.32 µM (inactive) |  | > 10 µM (inactive) | > 10 µM (inactive) | 
O=C(O)C1CCCCC1C(=O)Nc1nc2ccccc2[nH]1 (configuration not stated) | > 100 µM (inactive) | > 100 µM (inactive) | > 100 µM (inactive) | > 100 µM (inactive) | > 100 µM (inactive) | > 100 µM (inactive) | > 100 µM (inactive) | > 100 µM (inactive) |  | > 100 µM (inactive) | > 100 µM (inactive) | > 100 µM (inactive) | > 100 µM (inactive) | > 100 µM (inactive) | 63 µM (inactive) | > 100 µM (inactive) | > 100 µM (inactive) | > 100 µM (inactive) | > 100 µM (inactive)
N#CC(C#N)=Cc1ccc(C=C2SC3=C(SCCS3)S2)s1 | > 100 µM (inactive) | 6.04 µM (inactive) | 66.2 µM (inactive) | 9.68 µM (inactive) | 2.5 µM (inactive) | 0.618 µM (active) | > 100 µM (inactive) | 3.24 µM (inactive) | 15.8 µM (inactive) | 2.48 µM (inactive) | 16.7 µM (inactive) | 24.4 µM (inactive) | > 100 µM (inactive) |  | > 100 µM (inactive) | 3.72 µM (inactive) | > 100 µM (inactive) | 2.89 µM (inactive) | 10.4 µM (inactive)
CCCCCCCCCCCCCCCCNC(=O)/C(=C\c1ccc(Cl)c(Cl)c1)NC(=O)c1ccccc1 | 27.4 µM (inactive) | 26.5 µM (inactive) | 25.8 µM (inactive) | 24.8 µM (inactive) | > 100 µM (inactive) | 68.7 µM (inactive) | > 100 µM (inactive) | 37.9 µM (inactive) |  |  | 16.7 µM (inactive) | 55.2 µM (inactive) | > 100 µM (inactive) | 18.2 µM (inactive) | 44.3 µM (inactive) | 47.2 µM (inactive) | 47.4 µM (inactive) |  | 19.9 µM (inactive)
O=[N+]([O-])C(=C(Nc1ccccc1)Nc1ccccc1)C(Cl)=C(Cl)Cl | 17.5 µM (inactive) | 15.2 µM (inactive) | 17.1 µM (inactive) | 12.2 µM (inactive) | 16.5 µM (inactive) | 12.6 µM (inactive) | 19.6 µM (inactive) | 12.5 µM (inactive) | 19.5 µM (inactive) | 8.04 µM (inactive) | 19.1 µM (inactive) | 17.8 µM (inactive) | 19.3 µM (inactive) |  | 15.7 µM (inactive) | 23.1 µM (inactive) | 15.9 µM (inactive) | 15.6 µM (inactive) | 9.93 µM (inactive)
CN(C)c1ccc(/N=N/c2ccncc2)cc1 | > 100 µM (inactive) | > 100 µM (inactive) | > 100 µM (inactive) | 48.1 µM (inactive) | > 100 µM (inactive) | 46 µM (inactive) | > 100 µM (inactive) | > 100 µM (inactive) | 22.6 µM (inactive) | > 100 µM (inactive) |  | > 100 µM (inactive) | > 100 µM (inactive) |  | 18.5 µM (inactive) | > 100 µM (inactive) | > 100 µM (inactive) | 87.5 µM (inactive) | > 100 µM (inactive)
Nn1c(CCCCCCCCc2nnc(COc3ccccc3)n2N)nnc1COc1ccccc1 | > 100 µM (inactive) | > 100 µM (inactive) | > 100 µM (inactive) | > 100 µM (inactive) |  | > 100 µM (inactive) | > 100 µM (inactive) | > 100 µM (inactive) | > 100 µM (inactive) |  | 88.1 µM (inactive) | > 100 µM (inactive) | > 100 µM (inactive) |  | > 100 µM (inactive) | > 100 µM (inactive) | > 100 µM (inactive) | > 100 µM (inactive) | > 100 µM (inactive)
CC(C)c1ccc(/C=C2\CSCC3=C2N=C2SCC(=O)N2C3c2ccc(C(C)C)cc2)cc1 (configuration not stated) | > 100 µM (inactive) | > 100 µM (inactive) | 92.7 µM (inactive) | > 100 µM (inactive) | > 100 µM (inactive) | > 100 µM (inactive) | 96.4 µM (inactive) | > 100 µM (inactive) | > 100 µM (inactive) | 68.1 µM (inactive) | > 100 µM (inactive) | > 100 µM (inactive) | 57.9 µM (inactive) | 77.4 µM (inactive) | > 100 µM (inactive) | > 100 µM (inactive) | > 100 µM (inactive) | > 100 µM (inactive) | 
C/C(=C/CC[C@](C)(OC1OC(CO)C(O)C(O)C1O)[C@H]1CC[C@]2(C)[C@@H]1CC[C@@H]1[C@@]3(C)CC[C@H](O)C(C)(C)[C@@H]3C[C@H](O)[C@]12CO)CO (some centres not stated) | > 100 µM (inactive) | > 100 µM (inactive) | > 100 µM (inactive) | > 100 µM (inactive) | > 100 µM (inactive) | > 100 µM (inactive) | > 100 µM (inactive) | > 100 µM (inactive) |  | > 100 µM (inactive) | > 100 µM (inactive) | > 100 µM (inactive) | > 100 µM (inactive) | > 100 µM (inactive) | > 100 µM (inactive) | > 100 µM (inactive) | > 100 µM (inactive) | > 100 µM (inactive) | > 100 µM (inactive)
Cc1c(C)c2ccc(OCC(O)COC(C)C)c(C)c2oc1=O (configuration not stated) | > 100 µM (inactive) | 45.2 µM (inactive) |  | > 10 µM (inactive) | > 100 µM (inactive) | 17.7 µM (inactive) | 16.2 µM (inactive) | 18.5 µM (inactive) | 24.8 µM (inactive) | 27.5 µM (inactive) |  | 23.5 µM (inactive) | > 100 µM (inactive) | 26.7 µM (inactive) | 45.5 µM (inactive) | 39.1 µM (inactive) | 44.3 µM (inactive) | 38.5 µM (inactive) | 
C/C(=N\NC(=O)Nc1ccccc1Cl)c1ccc(O)cc1 | > 100 µM (inactive) | > 100 µM (inactive) | > 100 µM (inactive) | > 100 µM (inactive) | > 100 µM (inactive) | > 100 µM (inactive) | > 100 µM (inactive) | 48.6 µM (inactive) | > 100 µM (inactive) | > 100 µM (inactive) | 34.1 µM (inactive) | > 100 µM (inactive) | > 100 µM (inactive) | 4.34 µM (inactive) | > 100 µM (inactive) | > 100 µM (inactive) | > 100 µM (inactive) | > 100 µM (inactive) | 
C/C(=N/NC(=S)NCCc1ccccn1)c1cnccn1 | 17.8 µM (inactive) | 48.8 µM (inactive) | 21.9 µM (inactive) | 24.4 µM (inactive) | 32.1 µM (inactive) | 53 µM (inactive) | 6.37 µM (inactive) | 23.2 µM (inactive) | 40.4 µM (inactive) | 2.64 µM (inactive) | > 100 µM (inactive) | 24.4 µM (inactive) | 6.05 µM (inactive) | 2.44 µM (inactive) | 10.9 µM (inactive) | 79.3 µM (inactive) | 20.7 µM (inactive) | 18.3 µM (inactive) | 
CN(C)CCCNC(=O)c1cc(NC(=O)c2cc(NC(=O)c3cc(NC(=O)CCCn4ccc(CO)c4CO)cn3C)cn2C)cn1C | 3.94 µM (inactive) | 12.2 µM (inactive) | 6.18 µM (inactive) | 19.5 µM (inactive) | 10.9 µM (inactive) | 16.5 µM (inactive) | 14.5 µM (inactive) | 3.86 µM (inactive) | 63.5 µM (inactive) | 3.73 µM (inactive) | 5.01 µM (inactive) |  | 6.85 µM (inactive) | 6.5 µM (inactive) | 72.4 µM (inactive) | 3.99 µM (inactive) | 15.8 µM (inactive) | 3.48 µM (inactive) | 
Fc1nc(Sc2ncnc3nc[nH]c23)nc(-c2c3ccccc3c3sc4ccccc4n23)n1 | > 100 µM (inactive) | > 100 µM (inactive) | > 100 µM (inactive) | > 100 µM (inactive) | > 100 µM (inactive) | > 100 µM (inactive) | > 100 µM (inactive) | > 100 µM (inactive) | > 100 µM (inactive) | 40.7 µM (inactive) | > 100 µM (inactive) | > 100 µM (inactive) | > 100 µM (inactive) |  | > 100 µM (inactive) | > 100 µM (inactive) | > 100 µM (inactive) | > 100 µM (inactive) | > 100 µM (inactive)
